In US20230310441A1, “TREATMENT FOR SCHIZOPHRENIA” (TAKEDA PHARMACEUTICAL COMPANY, priority 2020, published 2023):
Marks after values point to notes of the source that are not given here.

Tested on: endogenous dopamine release in the human brain
Test: [^11C]PHNO PET of endogenous dopamine release after d-AMPH challenge
Type: in vivo
Settings: for ΔΔBPND Mean (SD), Ca / ΔΔBPND Mean (SD), GP / ΔΔBPND Mean (SD), Pu / ΔΔBPND Mean (SD), SN / ΔΔBPND Mean (SD), VSt: attenuation of d-AMPH effect
Description: A T1-weighted magnetic resonance imaging (MRI) scan of the brain, performed at screening, was used to obtain anatomical information required for PET data analysis. Each subject underwent three [^11C]PHNO PET scans, one at baseline, the second approximately 3 h after a single oral dose of dex-amphetamine (d-AMPH, 0.5 mg/kg), and the third approximately 5 h after a single oral dose of Compound (I) (20 or 40 mg) and 3 h after an oral dose of dex-amphetamine (d-APMH) (0.5 mg/kg) (FIG. 2).
Subjects were positioned in the PET scanner, after the insertion of a venous cannula in an antecubital or forearm vein. Soft padding and head restraints were used to minimize head movement during data acquisition. All dynamic [^11C]PHNO PET scans were acquired on Siemens Biograph 6 PET/CT scanners (Hi-Rez (PET/CT1) or a TruePoint with TrueV, Siemens Healthcare, Erlangen, Germany). All scans for a particular subject were acquired on the same scanner. A low-dose computed tomography (CT) scan was performed immediately before each PET study to estimate signal attenuation. Following an intravenous bolus injection of [^11C]PHNO, dynamic emission data were acquired for 90 min in 26 frames of increasing duration. The dynamic images were reconstructed using Fourier rebinning and a 2D filtered discrete inverse Fourier transform algorithm with 5 mm isotropic Gaussian filter on a 128×128 matrix with 2.6 zoom giving 2 mm isotropic voxels. Appropriate corrections were applied for attenuation, randoms, and scatter.
The primary set of ROIs defined were the ventral striatum (VSt), putamen (Pu) and cerebellum. […] The cerebellum was used as a reference region. An additional set of ROIs including the caudate nucleus (Ca), globus pallidus (GP) and substantia nigra (SN) was also evaluated.
Regional TAC data extracted from the PET images were fitted using a basis function implementation of the SRTM (Gunn et al., 1997) to estimate the binding potential relative to the non-displaceable component (BPND) for each PET scan, as a measure of specific binding (Innis et al., 2007).
Reduction in [^11C]-PHNO specific binding following a d-AMPH challenge (ΔBPND^APMH) was quantified as percent change in postdose BPND (BPND^AMPH) from baseline BPND (BPND^BL):
Reduction in [^11C]-PHNO specific binding following a combination of Compound (I) and d-AMPH (ΔBPND^APMH+C1) was quantified as percent change in postdose BPND (BPND^AMPH+C1) from baseline BPND (BPND^BL):
The effect of Compound (I) (ΔΔBPND) was quantified as the percent change BPND in ΔBPND^APMH+C1 compared to ΔBPND^APMH:
All statistical comparisons were conducted using Student's t-tests for each ROI, using paired tests for within subject comparisons, and unpaired tests for between group comparisons.

C[C@H](NC(=O)Cn1nnc2ccccc2c1=O)c1ccc(OC(F)(F)F)cc1 [Compound (I), (S)-2-(4-oxobenzo[d][1,2,3]triazin-3(4H)-yl)-N-(1-(4-(trifluoromethoxy)phenyl)ethyl)acetamide]
dose effect on ΔΔBPND, 40 mg group vs 20 mg group (Pu and GP, one-tailed t-tests, p<0.01): significantly greater than that in the 20 mg group
effect of pre-treatment on the d-AMPH challenge (all ROI, significant in Pu, VSt and SN): attenuated the effect of the d-AMPH challenge in all ROI examined
ΔΔBPND Mean (SD), Ca (20 mg single oral dose): −4.2 (59.2) %
ΔΔBPND Mean (SD), GP (20 mg single oral dose): −3.2 (19.7) %
ΔΔBPND Mean (SD), Pu (20 mg single oral dose): 16.4 (11.3)* %
ΔΔBPND Mean (SD), SN (20 mg single oral dose): 25.6 (49.7) %
ΔΔBPND Mean (SD), VSt (20 mg single oral dose): 13.8 (14.1)* %
ΔΔBPND Mean (SD), Ca (40 mg single oral dose): 24.8 (26.7) %
ΔΔBPND Mean (SD), GP (40 mg single oral dose): 66.6 (32.4) %
ΔΔBPND Mean (SD), Pu (40 mg single oral dose): 36.4 (7.7) * %
ΔΔBPND Mean (SD), SN (40 mg single oral dose): 40.8 (58.6) %
ΔΔBPND Mean (SD), VSt (40 mg single oral dose): 22.6 (20.3) %
ΔΔBPND Mean (SD), Ca (all subjects (20 or 40 mg)): 10.3 (45.9) %
ΔΔBPND Mean (SD), GP (all subjects (20 or 40 mg)): 31.7 (44.6) %
ΔΔBPND Mean (SD), Pu (all subjects (20 or 40 mg)): 26.4 (13.9)* %
ΔΔBPND Mean (SD), SN (all subjects (20 or 40 mg)): 33.2 (51.8)* %
ΔΔBPND Mean (SD), VSt (all subjects (20 or 40 mg)): 18.2 (17.1)* %
blood-brain barrier crossing (healthy human volunteers): readily crossed the blood-brain barrier
modulation of dopamine release (healthy human volunteers, 20 or 40 mg single oral dose): dose-dependent modulation of dopamine release
